{"source": "patent US4738969A", "about": "“Substituted aminopyridones and aminoquinolones having histamine H2 -receptor blocking activity” (Smith Kline & French Laboratories Limited, priority 1983, dated 1988)", "key": {"histamine H2 -receptors [1]": {"test_system": "histamine H2 -receptors", "assay": "inhibition of histamine-induced tachycardia in the isolated guinea pig right atrium (guinea pig atrium test)", "format": "cell-based", "conditions": "times more active than the reference compound", "text": "(§1) The measurement of inhibition of histamine-stimulated secretion of gastric acid from the lumen-perfused stomachs of rats anaesthetised with urethane, and the measurement of inhibition of histamine-induced tachycardia in the isolated guinea pig right atrium, are detailed in U.S. Pat. No. 4,385,058."}, "histamine H2 -receptors [2]": {"test_system": "histamine H2 -receptors", "assay": "inhibition of histamine-stimulated acid secretion in the Heidenhain Pouch Dog", "format": "in vivo", "conditions": "intravenous administration, dose levels adjusted to produce similar peak responses"}, "histamine H2 -receptors [3]": {"test_system": "histamine H2 -receptors", "assay": "inhibition of histamine-stimulated secretion of gastric acid from the lumen-perfused stomachs of rats anaesthetised with urethane (lumen-perfused rat test)", "format": "in vivo", "conditions": "times more active than the reference compound", "text": "These are actions of histamine which, according to Ash and Schild, Brit. J. Pharmac. Chemother. 27 247 (1966), are not mediated by histamine H1 -receptors.\nas §1"}}, "data": [{"molecule": "O=c1cc[nH]c(NCCCOc2cccc(CN3CCCCC3)c2)c1", "note": "[Example 1, 2-[3-[3-(Piperidinomethyl)phenoxy]propylaminc]-pyrid-4-one]", "values": [{"measurement": "activity relative to 2-[2-(5-methylimidazol-4-ylmethylthio)ethylamino]pyrid-4-one (Example 16 of U.S. Pat. No. 3,932,644), guinea pig atrium test", "setting": "histamine H2 -receptors [1]", "value": "over 100 times"}, {"measurement": "duration of activity compared with cimetidine", "setting": "histamine H2 -receptors [2]", "value": "longer duration of activity than cimetidine"}, {"measurement": "activity relative to 2-[2-(5-methylimidazol-4-ylmethylthio)ethylamino]pyrid-4-one (Example 16 of U.S. Pat. No. 3,932,644), lumen-perfused rat test", "setting": "histamine H2 -receptors [3]", "value": "over 100 times"}]}]}
